Drawing on patent US5510368A, “N-benzyl-3-indoleacetic acids as antiinflammatory drugs” (priority 1995, dated 1996), this text covers IC50 and Rat paw edema (ED30) for five compounds.

Molecules are shown by their SMILES. Counter-ions that a name gives are not always drawn.

In one experiment the target is cyclooxygenase-1 (Homo sapiens, UniProt P23219). Nature of the experiment: Inhibition of cyclooxygenase activity, whole cell cyclooxygenase assay (COX-1, U-937 cells, PGE2 by radioimmunoassay). To be noted: human U-937 cells; PGE2 synthesis; 10 μM arachidonic acid. Type of experiment: cell-based.
Another experiment concerns Rat paw edema. The experiment can be described thus: Rat Paw Edema Assay (carrageenan). To be noted: po, 1 h before subplantar carrageenan (500 μg per paw); paw volume at 3 h. Type of experiment: in vivo, Male Sprague-Dawley rats. How it is done:
Male Sprague-Dawley rats (150-200 g) were fasted overnight and were given po either vehicle (1% methocel or 5% Tween 80) or a test compound. One hour later, a line was drawn using a permanent marker at the level above the ankle in one hind paw to define the area of the paw to be monitored. The paw volume (VO) was measured using a plethysmometer (Ugo-B asile, Italy) based on the principle of water displacement. The animals were then injected subplantarly with 50 μl of 1% carrageenan solution in saline (FMC Corp, Maine) into the paw using an insulin syringe with a 25-gauge needle (i.e. 500 μg carrageenan per paw). Three hours later, the paw is volume (V3) was measured and the increases in paw volume (V3 -VO) were calculated. The animals were sacrificed by CO2 aphyxiation and the absence or presence of stomach lesions scored. Data were compared with the vehicle-control values and percent inhibition calculated. […] All treatment groups were coded to eliminate observer bias.

For a further experiment, the target named is T1, cyclooxygenase-2 (Homo sapiens, UniProt P35354).
T1 sequence (P35354 18-604): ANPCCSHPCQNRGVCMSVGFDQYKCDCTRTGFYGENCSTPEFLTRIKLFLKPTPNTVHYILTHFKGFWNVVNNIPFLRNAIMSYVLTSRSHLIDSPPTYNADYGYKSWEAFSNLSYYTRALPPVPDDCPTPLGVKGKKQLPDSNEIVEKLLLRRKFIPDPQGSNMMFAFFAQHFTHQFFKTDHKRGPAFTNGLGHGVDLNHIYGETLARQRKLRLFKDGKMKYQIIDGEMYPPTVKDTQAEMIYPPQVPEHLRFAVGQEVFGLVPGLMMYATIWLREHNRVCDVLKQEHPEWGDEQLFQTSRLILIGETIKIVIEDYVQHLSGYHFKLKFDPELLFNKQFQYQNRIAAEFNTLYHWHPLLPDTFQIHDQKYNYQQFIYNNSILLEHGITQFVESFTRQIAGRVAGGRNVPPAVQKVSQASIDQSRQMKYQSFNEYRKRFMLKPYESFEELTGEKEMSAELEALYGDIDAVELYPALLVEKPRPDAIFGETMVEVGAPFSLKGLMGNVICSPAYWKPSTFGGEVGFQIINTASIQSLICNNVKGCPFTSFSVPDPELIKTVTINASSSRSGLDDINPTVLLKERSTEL
The experiment can be described thus: cell-based. The settings on record: human osteosarcoma 143 cells; PGE2 synthesis; 10 μM arachidonic acid; read-out: COX-2 (IC50). The method, then: Compounds were tested as inhibitors of cyclooxygenase activity in whole cell cyclooxygenase assays. Both of these assays measured prostaglandin E2 synthesis in response to arachidonic acid, using a radioimmunoassay. Cells used for these assays were human osteosarcoma 143 cells (which specifically express cyclooxygenase-2) and human U-937 cells (which specifically express cyclooxygenase-1 ). In these assays, 100% activity is defined as the difference between prostaglandin E2 synthesis in the absence and presence of arachidonate.
For cyclooxygenase assays, osteosarcoma cells are cultured in 1 mL of media in 24-well multidishes (Nunclon) until confluent (1-2×10^5 cells/well). U-937 cells are grown in spinner flasks and resuspended to a final density of 1.5×10^6 cells/mL in 24-well multidishes (Nunclon). Following washing and resuspension of osteosarcoma and U-937 cells in 1 mL of Hanks balanced salts solution (HBSS), 2 μL of a DMSO solution of test compound or DMSO vehicle is added, and samples gently mixed. All assays are performed in triplicate. Samples and then incubated for 5 or 15 minutes at 37° C., prior to the addition of arachidonic acid. Arachidonic acid (peroxide-free, Cayman Chemical) is prepared as a 10mM stock solution in ethanol and further diluted 10-fold in HBSS. An aliquot of 10 μL of this diluted solution is added to the cells to give a final arachidonic acid concentration of 10 μM. Control samples are incubated with ethanol vehicle instead of arachidonic acid. Samples are again gently mixed and incubated for a further 10 min. at 37° C. For osteosarcoma cells, reactions are then stopped by the addition of 100 μL of 1 N HCl with mixing and by the rapid removal of the solution from cell monolayers. For U-937 cells, reactions are stopped by the addition of 100 μL of 1N HCl, with mixing. Samples are then neutralized by the addition of 100 μL of 1N NaOH and PGE2 levels measured by radioimmunoassay.
In the assay, inhibition is determined by measuring the amount of prostaglandin E2 (PGE2) synthesized in the presence of arachidonic acid, cyclooxygenase-1 or cyclooxygenase-2 and a putative inhibitor. The IC50 values represent the concentration of putative inhibitor required to return PGE2 synthesis to 50% of that obtained as compared to the uninhibited control.

cyclooxygenase-1, sequence (P23219 24-599): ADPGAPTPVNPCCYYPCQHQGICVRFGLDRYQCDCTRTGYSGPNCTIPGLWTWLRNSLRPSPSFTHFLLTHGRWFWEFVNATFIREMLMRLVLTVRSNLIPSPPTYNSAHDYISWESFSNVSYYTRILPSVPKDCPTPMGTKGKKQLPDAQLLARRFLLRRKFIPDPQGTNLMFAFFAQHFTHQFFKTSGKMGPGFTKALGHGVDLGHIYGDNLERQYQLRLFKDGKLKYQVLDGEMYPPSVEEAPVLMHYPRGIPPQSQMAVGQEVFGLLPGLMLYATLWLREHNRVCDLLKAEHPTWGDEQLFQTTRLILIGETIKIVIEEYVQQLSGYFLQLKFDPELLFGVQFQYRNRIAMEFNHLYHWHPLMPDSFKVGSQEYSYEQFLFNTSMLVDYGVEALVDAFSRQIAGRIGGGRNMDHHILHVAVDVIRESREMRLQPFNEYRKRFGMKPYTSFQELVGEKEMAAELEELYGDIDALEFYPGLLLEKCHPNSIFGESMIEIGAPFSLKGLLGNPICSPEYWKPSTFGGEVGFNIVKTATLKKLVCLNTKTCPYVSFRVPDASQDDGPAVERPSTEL

In the case of `Cc1c([C@@H](C)C(=O)O)c2cc(Br)ccc2n1Cc1ccc(Br)cc1` [Example 3, (R)-(-)-2-(5-Bromo-1-(4-bromobenzyl)-2-methyl-1H-indol-3-yl)propionic acid, sodium salt], the IC50 at cyclooxygenase-1 turned out to be 32000 nM; on cyclooxygenase-2, 1 nM. Further, the Rat paw edema (ED30) in the experiment on Rat paw edema was determined as 0.57 mg/kg.

For `Cc1c(C(C)C(=O)[O-])c2cc(Br)ccc2n1Cc1ccc(Br)cc1.[Na+]` (racemic) [sodium salt], the concentration for half-maximal inhibition (IC50) at cyclooxygenase-1 is 10000 nM; at cyclooxygenase-2, 1.9 nM.

`Cc1c(C(C)C(=O)[O-])c2cc(Br)ccc2n1Cc1ccc(Br)cc1.[Na+]` (racemic): in the experiment with Rat paw edema, the Rat paw edema (ED30) was 0.26 mg/kg.

Consider `Cc1c([C@H](C)C(=O)O)c2cc(Br)ccc2n1Cc1ccc(Br)cc1` [Example 2, sodium salt], for which the half-inhibitory concentration (IC50) was found to be 1100 nM at cyclooxygenase-1 and 13 nM at cyclooxygenase-2. Besides, in the experiment on Rat paw edema, the Rat paw edema (ED30) was 0.28 mg/kg.

As for `COc1ccc2c(c1)c(C(C)C(=O)O)c(C)n2Cc1ccc(Cl)cc1` (stereo not drawn) [MK-555, α-(1-p-chlorobenzyl-2-methyl-5-methoxy-3-indolyl)propionic acid, reference compound], the IC50 was determined as 10000 nM on cyclooxygenase-1 and 10 nM on cyclooxygenase-2. In the experiment on Rat paw edema, this compound returned a Rat paw edema (ED30) of 3 mg/kg.
